Assay results as given in PubChem BioAssay AID463204 (Broad Institute, 2010).
Activity calls are given as the source filed them.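 The calls were made as follows: active = AC50 no more than ten times the top concentration tested, that is within one log above it; inconclusive = flat curve fit with activity between 30% and 70%, or invalid poor fit; inactive = AC50 beyond ten times the top tested dose.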

What follows are molecules tested on S. cerevisiae Mot1-301 ts growth rescue, BacTiter-Glo ATP luminescence (assay: restored Mot1-301 yeast growth at 38.5C – whole organism, S. cerevisiae, Mot1-301 ts mutant, luminescence, dose retest, SUMOylation pathway inhibitor project, confirmation (AID 463204);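 also: growth at restrictive 38.5 degrees C of Mot1-301 OY566 strain; actives raise luminescence by restoring growth of the ts mutant at high temperature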).
With `Cc1ccc(N2C(=O)C3N=NN(CC(=O)N4N=C(c5cccc6ccccc56)CC4c4ccccc4)C3C2=O)cc1` (centres undefined) the AC50 was > 21 µM (inactive). For `Fc1ccccc1-n1cc(-c2ccccc2)[nH]c1=S`, the AC50 was > 42 µM (inactive). With `COc1ccccc1NC(=O)CN(c1ccc(C)cc1)S(=O)(=O)c1c(C)n[nH]c1C` the AC50 was > 42 µM (inactive). `O=C(CSc1nnc(-c2ccccc2Cl)o1)Oc1ccc(Br)cc1` was tested, and the AC50 was > 42 µM (inactive). In the case of `C=CCSc1nnc2c(n1)[nH]c1c(C)cccc12`, the AC50 was > 42 µM (inactive). For `CN1/C(=C\C(=O)COC(=O)c2ccc([N+](=O)[O-])o2)C(C)(C)c2ccccc21`, the AC50 was 13.6 µM. In the case of `Cc1onc(-c2ccccc2Cl)c1C(=O)N1CCc2ccccc2C1`, the AC50 was 34 µM. `COc1ccc(-c2csc(NC(=O)CS(=O)(=O)c3ccc(F)cc3)n2)cc1OC` was tested, and the AC50 was > 42 µM (inactive). `O=C1NC2(CCCCO2)CO1` (centres undefined) was tested, and the AC50 was > 42 µM (inactive). For `CC(Cc1ccc(O)c(O)c1)C(C)Cc1ccc(O)c(O)c1` (centres undefined), the AC50 was > 42 µM (inactive). In the case of `O=C(CCN1CCc2ccccc2C1)Nc1ccc2c(c1)OCO2`, the AC50 was > 42 µM (inactive). `O=C(NC1CCCCC1)N(Cc1cc2cc3c(cc2[nH]c1=O)OCCO3)C1CCCCC1` was tested, and the AC50 was > 42 µM (inactive). For `C/C=C/C(=O)N1c2ccc(C)cc2C(C)=CC1(C)C`, the AC50 was > 42 µM (inactive). In the case of `O=c1[nH]cnc2cc(Cl)ccc12`, the AC50 was > 21 µM (inactive). With `Cc1cc(C)cc(NC(=O)C2CCCN(S(=O)(=O)c3ccc4[nH]c(=O)ccc4c3)C2)c1` (centres undefined) the AC50 was > 42 µM (inactive). In the case of `COc1ccc(-n2c(C)cc(C(=O)CN3C(=O)NC4(CCCc5sccc54)C3=O)c2C)cc1` (centres undefined), the AC50 was > 42 µM (inactive). With `Cc1c(C(=O)NC(C)c2ccc(-n3ccnc3)cc2)cccc1[N+](=O)[O-]` (centres undefined) the AC50 was > 42 µM (inactive). With `Cc1cnc(NC(=O)CSc2nc3ccccc3s2)s1` the AC50 was > 42 µM (inactive). `Cc1ccc(C2=NN(CC(=O)NCc3cccs3)C(=O)CC2)cc1` was tested, and the AC50 was > 42 µM (inactive). `Cc1nnc(NC(=O)c2ccc(-c3cccc(C(F)(F)F)c3)o2)s1` was tested, and the AC50 was > 42 µM (inactive). `O=C(NCCCN1CCN(c2ccccc2F)CC1)Nc1ccccc1[N+](=O)[O-]` was tested, and the AC50 was > 42 µM (inactive). With `O=C1CN(C(=O)COC(=O)c2cccc(S(=O)(=O)NCc3ccccc3)c2)c2ccccc2N1` the AC50 was > 42 µM (inactive). In the case of `O=C1COc2ccc(C(=O)COC(=O)c3ncc(Cl)c(Cl)c3Cl)cc2N1`, the AC50 was > 42 µM (inactive). `COc1ccc2c(c1)OC[C@H]1[C@H]2N2C(=O)c3cc(F)ccc3NC(=O)[C@@]2(C)[C@H]1c1ccccc1` was tested, and the AC50 was 3.15 µM. `Cc1nc2ccccc2n(CC(=O)Nc2cc(Cl)cc(Cl)c2)c1=O` was tested, and the AC50 was > 42 µM (inactive). With `O=C(COc1ccccc1)Nc1ccc(OC(F)(F)C(F)F)c(NC(=O)COc2ccccc2)c1` the AC50 was > 42 µM (inactive). In the case of `CC(CN1CCCCCC1)C(=O)NN` (centres undefined), the AC50 was > 42 µM (inactive). With `COc1ccc(CNC(=O)c2cc(=O)c3cc(C)cc(C)c3o2)cc1` the AC50 was > 42 µM (inactive). For `O=C(CSc1nc2ccc(Cl)cc2[nH]1)NCc1ccco1`, the AC50 was > 42 µM (inactive). `Cc1cc(F)ccc1S(=O)(=O)Nc1ccccc1C(=O)Nc1ccc2[nH]c(=O)[nH]c2c1` was tested, and the AC50 was > 42 µM (inactive). With `O=C(O)CCSc1ccc([N+](=O)[O-])cc1[N+](=O)[O-]` the AC50 was 8.27 µM. For `Cc1ccc(C)c(NC(NC(=O)c2ccccn2)C(Cl)(Cl)Cl)c1` (centres undefined), the AC50 was > 42 µM (inactive). `COc1ccc(N2CC(C(=O)N3CCc4ccccc43)CC2=O)cc1` (centres undefined) was tested, and the AC50 was > 42 µM (inactive). With `CCCN1C(=O)c2ccccc2NC1c1ccc(C)cc1` (centres undefined) the AC50 was > 42 µM (inactive). `COc1ccccc1NC(=O)c1nn(C)cc1Br` was tested, and the AC50 was > 42 µM (inactive). `CNC(=O)c1ccccc1S(=O)c1ccccc1COC(C)=O` (centres undefined) was tested, and the AC50 was > 42 µM (inactive). `CCOc1c(P(=S)(N(C)C)N(C)C)c(C)nn1-c1ccccc1` was tested, and the AC50 was > 42 µM (inactive). In the case of `CCCOc1ccc(N2C(=O)CC(N3CCC(C(=O)OCC)CC3)C2=O)cc1` (centres undefined), the AC50 was 13.1 µM. `C[C@@]12C(=O)Nc3ccc(F)cc3C(=O)N1[C@H]1c3cc(Cl)ccc3OC[C@@H]1[C@@H]2c1ccccc1` gave an AC50 of 1.97 µM. `COc1ccc(Cl)cc1C(=O)NCCc1ccc(S(=O)(=O)NC(=O)NC2CCCCC2)cc1` was tested, and the AC50 was > 42 µM (inactive). With `COc1ccc(/C=C(\C#N)C(=O)NCCCn2ccnc2)cc1` the AC50 was > 42 µM (inactive). In the case of `COc1ccc(NC(=O)CN(C)C(=O)/C=C/c2cn(-c3ccccc3)nc2-c2ccc(F)cc2)cc1`, the AC50 was > 42 µM (inactive). In the case of `Cc1cc(Oc2cc(NN3CCCCC3)c([N+](=O)[O-])cc2[N+](=O)[O-])ccc1[N+](=O)[O-]`, the AC50 was > 42 µM (inactive). In the case of `N=c1c2c(n(Cc3ccc(Cl)c(Cl)c3)c3c1CCC3)CCCC2`, the AC50 was > 42 µM (inactive). `CCCNC(=O)Cn1nc(C)n2c(cc3cc(F)ccc32)c1=O` was tested, and the AC50 was > 42 µM (inactive). In the case of `COc1ccc(-c2cc(C(F)(F)F)n3ncc(C(=O)O)c3n2)cc1OC`, the AC50 was > 42 µM (inactive). In the case of `CC(=O)Nc1cccc(C(=O)OCC(=O)NCc2ccc(F)cc2)c1`, the AC50 was > 42 µM (inactive). With `CS(=O)(=O)N1CCCC(C(=O)NCc2ccco2)C1` (centres undefined) the AC50 was > 42 µM (inactive). For `CCc1nccn1S(=O)(=O)c1cc(OC)ccc1OC`, the AC50 was > 42 µM (inactive). In the case of `CC(=O)N1N=C(N)SC12CCCC2`, the AC50 was > 42 µM (inactive). With `CCC(=O)N1c2ccc(S(=O)(=O)N3CCN(c4ccc([N+](=O)[O-])cc4)CC3)cc2CC1C` (centres undefined) the AC50 was > 42 µM (inactive). In the case of `Nc1ncnc2nc(SCC(=O)N3CCN(c4ccccc4)CC3)[nH]c12`, the AC50 was > 42 µM (inactive). With `CC(C)(C)c1ccc(-c2nc(C=O)c3ccccn23)cc1` the AC50 was > 42 µM (inactive). `O=c1[nH]c(CN2CCN(CCO)CC2)nc2ccccc12` was tested, and the AC50 was > 42 µM (inactive). For `COc1ccc(-n2c(SCC(=O)NCC3CCCO3)nc3c(c2=O)SCC3)cc1OC` (centres undefined), the AC50 was > 42 µM (inactive). In the case of `O=C(CCc1ccccc1)N1CCN(c2ccccc2F)CC1`, the AC50 was > 42 µM (inactive). With `COCCn1c(-c2ccc(Cl)cc2)cnc1SCC(=O)NCCc1ccc(OC)c(OC)c1` the AC50 was > 42 µM (inactive). With `CC1(C(=O)Nc2cccc(-n3cnnn3)c2)Cc2ccccc2C(=O)O1` (centres undefined) the AC50 was > 42 µM (inactive). `COc1ccc(C(=O)CSc2nnc3ccc(-c4ccccn4)nn23)cc1` was tested, and the AC50 was > 42 µM (inactive). `CCOC(=O)c1ccc(NC(=O)c2c(NC(=O)CCC(=O)O)sc3c2CCCCC3)cc1` was tested, and the AC50 was > 42 µM (inactive). With `O=c1/c(=C/c2ccco2)sc2nc(-c3ccccc3Br)nn12` the AC50 was 5.74 µM. `O=C(NCc1ccccc1Cl)C(=O)NCC1CCCN1S(=O)(=O)c1cccs1` (centres undefined) was tested, and the AC50 was > 42 µM (inactive). `CCOc1ccc(C(C(=O)NC2CCCC2)N(C(=O)c2snc(C(N)=O)c2N)C2CCCC2)cc1` (centres undefined) gave an AC50 of 42 µM. With `COc1cc(/C=C(\NC(=O)c2ccccc2)C(=O)Nc2nccs2)ccc1OC(C)=O` the AC50 was > 42 µM (inactive). With `O=C(NCc1cccnc1)Nc1ccccc1` the AC50 was > 42 µM (inactive). With `CC(C)(C)C(=O)Nc1ccc(C(=O)NCc2cccnc2)cc1` the AC50 was > 42 µM (inactive). In the case of `CCOc1ccc(N(C(C)C(=O)NC(C)CC)S(C)(=O)=O)cc1` (centres undefined), the AC50 was > 42 µM (inactive). With `O=C(Nc1cc(F)ccc1F)C1CCCO1` (centres undefined) the AC50 was > 42 µM (inactive). With `CCOC(=O)c1cc([N+](=O)[O-])c([N+](=O)[O-])cc1NC(C)=O` the AC50 was 8.71 µM. With `COc1ccc(C2C(C(=O)Nc3cc(OC)c(OC)c(OC)c3)c3ccccc3C(=O)N2C)cc1` (centres undefined) the AC50 was > 42 µM (inactive). In the case of `CC1=CC(=O)C(C(C)C)=C/C1=N/OS(=O)(=O)c1ccccc1`, the AC50 was 0.92 µM. With `Cc1ccc(C(=O)Nc2ccc3c(c2)OCCO3)c(Cl)c1` the AC50 was > 42 µM (inactive). `O=C(COC(=O)CSc1ccc([N+](=O)[O-])cc1)NC1CCCCCCC1` was tested, and the AC50 was > 42 µM (inactive). For `Cc1cc(C)cc(OCC(=O)Nc2ccc(N3CCN(C(=O)c4ccco4)CC3)cc2)c1`, the AC50 was > 42 µM (inactive). For `CC(=O)N1CCCc2cc(S(=O)(=O)Nc3ccc(C)cc3C)ccc21`, the AC50 was > 42 µM (inactive). For `COc1ccc(OCC(O)CN2C(=O)NC(C)(C)C2=O)cc1` (centres undefined), the AC50 was > 42 µM (inactive). With `CCOC(=O)C1C(=O)NC(SCC(=O)Nc2nccs2)=C(C#N)C1c1ccccc1OCC` (centres undefined) the AC50 was > 42 µM (inactive). For `Cc1ccc(Sc2cnccc2C#N)cc1`, the AC50 was > 42 µM (inactive). In the case of `CC(=O)C1(c2ccccc2)CCNCC1`, the AC50 was > 21 µM (inactive). With `O=C(NC1CCCCC1)c1n[nH]c2c1CCCCC2` the AC50 was > 42 µM (inactive). With `CSCCc1nc(SCC(=O)Nc2nnc(C)s2)[nH]c1C` the AC50 was > 42 µM (inactive). With `Cc1cccn2c(=O)c3cc(C(=O)NCCc4ccccc4)sc3nc12` the AC50 was > 42 µM (inactive). `Cc1nnc(SCC(=O)NCc2ccccc2Cl)[nH]c1=O` was tested, and the AC50 was > 42 µM (inactive). `COc1ccc2c(c1)[C@H]1[C@H](CO2)[C@H](c2ccccc2)[C@]2(C)C(=O)Nc3ccc(Br)cc3C(=O)N12` showed an AC50 of 1.17 µM. In the case of `O=C(c1cn(-c2ccccc2)nc1-c1cccs1)N1CCOCC1`, the AC50 was > 42 µM (inactive). `CC(=O)Nc1ccc(C(=O)NCCCOC(C)C)cc1` was tested, and the AC50 was > 42 µM (inactive). `CC(C)C1=CC(=Nc2ccc(S(N)(=O)=O)cc2)C=C(C(C)C)C1=O` was tested, and the AC50 was > 42 µM (inactive). In the case of `O=[N+]([O-])c1ccc(-c2csc(N3CCc4ccccc4C3)n2)cc1`, the AC50 was > 42 µM (inactive). With `CCn1c(SCC(=O)Nc2ccc(OCc3ccccc3)cc2)nnc1-c1ccco1` the AC50 was > 42 µM (inactive). With `Cc1cc(=O)oc(C)c1C(=O)Nc1ccc(Cl)cn1` the AC50 was > 42 µM (inactive). For `COc1ccc2c(c1)OC[C@H]1[C@H]2N2C(=O)c3cc(C)ccc3NC(=O)[C@@]2(C)[C@H]1c1ccccc1`, the AC50 was 1.39 µM. `COc1cc(CN2CCCC(CO)(Cc3cccc(Cl)c3)C2)cc2c1OCO2` (centres undefined) was tested, and the AC50 was > 42 µM (inactive). In the case of `CC1CN(Cc2ccccc2)c2nc3c(c(=O)[nH]c(=O)n3C)n2C1` (centres undefined), the AC50 was > 42 µM (inactive). `O=C(COc1ccccc1)Nc1cccc(-c2nnc(-c3ccccc3)o2)c1` was tested, and the AC50 was > 42 µM (inactive). With `COc1ccc(NC2CC(=O)N(C(C)C)C2=O)cc1` (centres undefined) the AC50 was > 42 µM (inactive). In the case of `c1ccc(CNc2ncnc3sc4c(c23)CCC4)nc1`, the AC50 was > 42 µM (inactive). `Cc1cc(NC(=O)c2ccc3c(c2)C(=O)N(C(C)(C)C)C3=O)no1` was tested, and the AC50 was > 42 µM (inactive). For `CC(C(=O)NCCN1CCOCC1)(c1ccccc1)c1ccccc1`, the AC50 was > 42 µM (inactive). In the case of `CCOc1ccc(C(=O)c2cccs2)cc1`, the AC50 was > 42 µM (inactive).
